Assay results from the NIST ThermoML archive (doi:10.1016/j.jct.2012.11.011).

Assay: xn = mol fraction of the nth substance listed
Conditions: Liquid, Vibrating tube method

CCCCCCCCCC [decane] + COC(=O)OC
mass density [kg/m3]
Conditions | x2 = 0.0438 | x2 = 0.11 | x2 = 0.2348 | x2 = 0.3516 | x2 = 0.3944 | x2 = 0.557 | x2 = 0.8035 | x2 = 0.95
288.15 K, 100 kPa | 739 | 749 | 769.2 | 792 | 801.9 | 844.5 | 944.4 | 1034.2
288.15 K, 5000 kPa | 742.7 | 753.6 | 773.1 | 796 | 805.9 | 848.7 | 948.8 | 1038.5
288.15 K, 10000 kPa | 746.2 | 757.2 | 776.8 | 799.9 | 809.8 | 852.6 | 953.1 | 1042.8
288.15 K, 20000 kPa | 752.7 | 763.9 | 783.7 | 807 | 817 | 858.8 | 963.1 | 1050.8
288.15 K, 30000 kPa | 758.8 | 769.8 | 790 | 813.4 | 823.5 | 865 | 971.2 | 1058.2
288.15 K, 40000 kPa | 764.3 | 775.8 | 796.1 | 819.7 | 829.3 | 872.6 | 977.8 | 1065.3
298.15 K, 100 kPa | 731.3 | 741.9 | 760.8 | 783.2 | 793.3 | 831.4 | 932.1 | 1021.4
298.15 K, 5000 kPa | 735.6 | 746.2 | 765.5 | 787.9 | 798 | 836.7 | 937.6 | 1026.5
298.15 K, 10000 kPa | 739 | 749.7 | 769 | 791.4 | 801.8 | 840.5 | 942.1 | 1030.7
298.15 K, 20000 kPa | 745.9 | 756.6 | 776.2 | 799 | 809.4 | 848.3 | 951.1 | 1039
298.15 K, 30000 kPa | 752.2 | 763.1 | 782.9 | 805.9 | 816.6 | 856.1 | 959.2 | 1047
298.15 K, 40000 kPa | 758.1 | 769 | 789 | 812.2 | 823 | 863.2 | 966.8 | 1054.4
308.15 K, 100 kPa | 723.6 | 733.9 | 752.5 | 774.3 | 783.8 | 820.2 | 920.7 | 1008.8
308.15 K, 5000 kPa | 727.7 | 738.2 | 756.9 | 778.9 | 788.5 | 825.6 | 926.3 | 1013.8
308.15 K, 10000 kPa | 731.7 | 742.2 | 761 | 783.2 | 792.8 | 830.8 | 931.6 | 1018.5
308.15 K, 20000 kPa | 739 | 749.7 | 768.6 | 790.9 | 801.1 | 840 | 941.1 | 1027.6
308.15 K, 30000 kPa | 745.6 | 756.4 | 775.6 | 798.3 | 808.4 | 848.4 | 949.7 | 1035.9
308.15 K, 40000 kPa | 751.8 | 762.6 | 782.1 | 804.9 | 815.3 | 856.1 | 957.8 | 1043.7

CCOC(=O)OCC [diethyl carbonate] + CCCCCCCC
mass density [kg/m3]
Conditions | x1 = 0.0522 | x1 = 0.1042 | x1 = 0.1671 | x1 = 0.322 | x1 = 0.3657 | x1 = 0.5075 | x1 = 0.6922 | x1 = 0.8002 | x1 = 0.9206 | x1 = 0.9459
288.15 K, 100 kPa | 716 | 726.1 | 738.6 | 772.6 | 784 | 820.5 | 874.2 | 908.5 | 951 | 959.8
288.15 K, 5000 kPa | 720.1 | 730.4 | 742.8 | 778.1 | 788.4 | 824.9 | 879.4 | 912.8 | 954.9 | 964.3
288.15 K, 10000 kPa | 723.9 | 734.4 | 746.8 | 782.1 | 792.6 | 829 | 883.7 | 917 | 958.8 | 968.6
288.15 K, 20000 kPa | 731.2 | 741.6 | 754.1 | 789.6 | 800.1 | 836.8 | 891.6 | 925 | 966.5 | 976.3
288.15 K, 30000 kPa | 737.8 | 748.2 | 760.7 | 796.5 | 807.1 | 843.9 | 898.5 | 932.1 | 973.8 | 983.3
288.15 K, 40000 kPa | 744 | 754.5 | 767.2 | 803.1 | 813.7 | 850.5 | 907.6 | 939 | 980.7 | 990.3
298.15 K, 100 kPa | 707.7 | 717.7 | 729.9 | 764.5 | 774.7 | 810.7 | 864.7 | 897.7 | 939.2 | 949.3
298.15 K, 5000 kPa | 712.5 | 722.5 | 734.7 | 769.5 | 779.7 | 815.8 | 869.8 | 902.8 | 944.2 | 953.8
298.15 K, 10000 kPa | 716.3 | 726.3 | 738.5 | 773.4 | 783.7 | 819.8 | 873.8 | 906.9 | 948.2 | 957.7
298.15 K, 20000 kPa | 723.9 | 734 | 746.3 | 781.4 | 791.8 | 828.1 | 882 | 915.2 | 956.4 | 965.9
298.15 K, 30000 kPa | 730.8 | 741 | 753.4 | 788.8 | 799.1 | 835.6 | 889.8 | 922.8 | 964 | 973.6
298.15 K, 40000 kPa | 737.2 | 747.4 | 759.9 | 795.5 | 805.9 | 842.4 | 896.9 | 929.9 | 971.1 | 980.7
308.15 K, 100 kPa | 699.6 | 709.3 | 721.2 | 755.4 | 765.4 | 801 | 854.3 | 887.1 | 928 | 937.6
308.15 K, 5000 kPa | 704.2 | 714 | 725.9 | 760.4 | 770.4 | 805.9 | 859.3 | 892 | 932.9 | 942.6
308.15 K, 10000 kPa | 708.7 | 718.5 | 730.5 | 765.1 | 775.1 | 810.8 | 864.1 | 896.8 | 937.6 | 947.3
308.15 K, 20000 kPa | 716.6 | 726.5 | 738.7 | 773.3 | 783.6 | 819.4 | 873 | 905.6 | 946.3 | 956
308.15 K, 30000 kPa | 723.8 | 733.9 | 746.2 | 781.1 | 791.2 | 827.2 | 880.9 | 913.7 | 954.3 | 964.1
308.15 K, 40000 kPa | 730.5 | 740.7 | 753 | 788 | 798.3 | 834.6 | 888.3 | 921.2 | 961.9 | 971.5
